Data taken from publication PMC4621749 (The Journal of General Physiology, 2015).

Target: T1, frog TRPV3 (Xenopus tropicalis TRPV3) (Xenopus tropicalis, UniProt F6UZP3)
T1 sequence (F6UZP3 1-773): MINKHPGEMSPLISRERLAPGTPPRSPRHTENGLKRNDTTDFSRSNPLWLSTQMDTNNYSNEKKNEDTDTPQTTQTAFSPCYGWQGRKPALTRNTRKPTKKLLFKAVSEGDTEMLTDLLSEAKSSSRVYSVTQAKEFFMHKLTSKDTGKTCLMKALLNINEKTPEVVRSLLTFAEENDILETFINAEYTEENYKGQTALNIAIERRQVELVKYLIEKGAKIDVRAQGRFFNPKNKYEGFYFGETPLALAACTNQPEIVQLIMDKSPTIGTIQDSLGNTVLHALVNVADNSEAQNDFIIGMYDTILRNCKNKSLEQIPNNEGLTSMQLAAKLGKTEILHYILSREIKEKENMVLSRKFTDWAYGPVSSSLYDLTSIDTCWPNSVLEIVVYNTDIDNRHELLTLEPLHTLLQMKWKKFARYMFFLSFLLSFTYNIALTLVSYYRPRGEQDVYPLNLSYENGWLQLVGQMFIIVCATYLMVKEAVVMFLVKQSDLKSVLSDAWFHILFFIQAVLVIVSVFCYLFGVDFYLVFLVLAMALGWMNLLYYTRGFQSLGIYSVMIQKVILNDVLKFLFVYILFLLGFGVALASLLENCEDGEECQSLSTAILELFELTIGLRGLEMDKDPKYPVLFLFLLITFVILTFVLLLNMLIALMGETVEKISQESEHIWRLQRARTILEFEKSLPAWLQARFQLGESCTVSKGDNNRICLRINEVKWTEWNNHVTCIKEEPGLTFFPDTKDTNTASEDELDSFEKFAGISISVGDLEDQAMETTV
Experiment: whole-cell patch clamp, HEK293, Hill fit of current density
Type: cell-based

## NCCOB(c1ccccc1)c1ccccc1 [2-APB]
  EC50: 269 ± 28 µM
